target: T1, human oxytocin receptor (Homo sapiens, UniProt P30559); assay: Oxytocin binding in Chinese Hamster Ovary cell membranes expressing human oxytocin receptors; settings: 100 nM, CHO cell membranes, [3H]oxytocin, values without parentheses
T1 construct: host or cells: CHO cells (pcDNA3.1 vector)
T1 sequence (P30559 1-389): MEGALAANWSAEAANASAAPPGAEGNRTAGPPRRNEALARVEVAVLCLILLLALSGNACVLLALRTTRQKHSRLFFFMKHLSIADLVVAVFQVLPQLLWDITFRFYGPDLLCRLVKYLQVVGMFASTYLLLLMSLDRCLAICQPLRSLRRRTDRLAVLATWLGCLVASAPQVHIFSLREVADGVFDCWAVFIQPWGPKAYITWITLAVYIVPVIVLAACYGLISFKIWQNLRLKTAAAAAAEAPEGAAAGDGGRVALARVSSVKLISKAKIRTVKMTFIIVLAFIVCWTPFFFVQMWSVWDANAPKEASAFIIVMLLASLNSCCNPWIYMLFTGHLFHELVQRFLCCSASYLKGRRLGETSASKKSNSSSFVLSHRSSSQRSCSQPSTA
Procedure: Oxytocin Binding in Chinese Hamster Ovary Cell Membranes Expressing Human Oxytocin Receptors
The trypsin is removed by aspiration and the cells dislodged by tapping. Cell Culture medium (e.g. 30 mL for 1:30 split) is immediately added and mixed well to inactivate trypsin. 1 mL of detached cells is added to new culture flasks containing fresh Cell Culture medium (e.g. into 25 mL per T-150 flask), and mixed gently. The cells are incubated at 37° C. in 5% CO2. The medium is changed at 3 to 4 days interval (or as appropriate). […] All steps are done under sterile conditions. B. Membrane Preparation: The cells are washed twice gently with Hank's Balanced Salt solution (e.g., use 10 mL per T-150 flask). […] The contents are transferred to centrifuge tubes (50 mL size) kept in ice bath. All subsequent steps are done at 4° C. The tubes are centrifuged at 300×g for 15 min (1380 rpm on SORVAL, Model RT6000D, using rotor for 50 mL tubes). The supernatant is discarded and the cells suspended in homogenizing buffer (10 mM Tris-HCl containing 0.25 M sucrose and 1 mM EDTA, pH 7.4) ensuring that the volume of the buffer is about ten times the volume of the cell pellet. The cells are pooled into a centrifuge tube (50 mL) and homogenized with a Polytron at setting 6 for 10 sec. The homogenate is transferred into a Potter-Elvjehm homogenizer and homogenized with 3 strokes. The homogenate is centrifuged at 1500×g for 10 min at 4° C. (3100 rpm using SORVAL, model RT6000D, using rotor for 50 mL tubes). The pellet is discarded. The supernatant is centrifuged at 100,000×g for 60 min. at 4° C. (Beckman L8-80M ultracentrifuge; spin at 37,500 rpm with rotor type 70 Ti for 50 mL tubes; 38,000 rpm with type 80Ti for 15 mL tubes; or 35,800 rpm with rotor type 45Ti). The supernantant is discarded and the pellet suspended in 3 to 4 mL of Tris buffer (50 mM TRIS-HCl, pH 7.4). The protein content is estimated by the Bradford or Lowry method. The volume of the membrane suspension is adjusted with the membrane buffer (50 mM Tris-HCl containing 0.1% BSA and 0.1 mM PMSF) to give 3.0 mg/mL (or as appropriate) of protein. The membranes are aliquoted and stored at −70° C. C. Radioligand Binding Assay: In wells of a 96-well format microtiter plate, is added 90, 110 or 130 μL (to make up a final volume of 200 μL) of assay buffer containing 50 mM of Tris-HCl (pH 7.4), […], 1 mg % aprotinin, 1 mg % leupeptin, 2 mg % 1,10-phenanthroline, 10 mg % trypsin inhibitor, and 0.1 mM PMSF. The inhibitors are added on the day of the experiment. The components are mixed at room temperature, and then kept in ice bath following adjustment of the pH to 7.4. […] For oxytocin and other peptide ligands, 20 μL of 50% DMSO is added and the assay buffer volume is adjusted accordingly. To each well is added 50 μL of frozen membrane suspension thawed immediately prior to use and diluted in assay buffer to the required concentration (equivalent to 25 to 50 μg of protein/well as needed). 20 μL of 8 nM [^3H]oxytocin in the assay buffer, prepared just before use is added and incubated at room temperature for 60 min. shaking the plate on a mechanical shaker for the first 15 min. The incubation is stopped by rapid filtration of the plate contents followed by washing with ice-cold buffer (50 mM Tris-HCl, pH 7.4) using a cell harvester (Tomtek and Printed filtermat-B filter paper). The filter paper is thoroughly dried (7–12 min. in a microwave oven) and impregnated with MeltiLex B/H melt-on scintillation wax sheets and the radioactivity counted in a betaplate scintillation counter.
Binding data is either reported as percent inhibition at a certain concentration or if an IC50 was calculated, as a nanomolar concentration.

Compound	OT % inhibition @ 100% nM [%]
COc1ccccc1-c1ccc(C(=O)N2Cc3ccc(C(=O)N4CCC[C@H]4CN4CCCC4)n3Cc3ccccc32)cc1OC [Example 269, {10-[(2,2′-Dimethoxy[1,1′-biphenyl]-4-yl)carbonyl]-10,11-dihydro-5H-pyrrolo[2,1-c][1,4]benzodiazepin-3-yl}[(2S)-2-(1-pyrrolidinylmethyl)pyrrolidinyl]methanone]	88
COc1cccc(-c2ccc(C(=O)N3Cc4ccc(C(=O)N5CCN(CCN(C)C)CC5)n4Cc4ccccc43)cc2C)c1 [Example 199, {4-[2-(Dimethylamino)ethyl]-1-piperazinyl{}10-[(3′-methoxy-2-methyl[1,1′-biphenyl]-4-yl)carbonyl]-10,11-dihydro-5H-pyrrolo[2,1-c][1,4]benzodiazepin-3-yl}methanone]	84
{10-[(2,2′-Dimethoxy[1,1′-biphenyl]-4-yl)carbonyl]-10,11-dihydro-5H-pyrrolo[2,1-c][1,4]benzodiazepin-3-yl}(4-isopropyl-1-piperazinyl)methanone [Example 244]	68
O=C(c1ccc(-c2cccc3ccccc23)cc1Cl)N1Cc2ccc(C(=O)N3CCC[C@H]3CN3CCCC3)n2Cc2ccccc21 [Example 261, {10-[2-Chloro-4-(1-naphthyl)benzoyl]-10,11-dihydro-5H-pyrrolo[2,1-c][1,4]benzodiazepin-3-yl}[(2S)-2-(1-pyrrolidinylmethyl)pyrrolidinyl]methanone]	52
COc1cc(C(=O)N2Cc3ccc(C(=O)N4CCC[C@H]4CN4CCCC4)n3Cc3ccccc32)ccc1-c1ccccc1C [Example 266, {10-[(2-Methoxy-2′-methyl[1,1′-biphenyl]-4-yl)carbonyl]-10,11-dihydro-5H-pyrrolo[2,1-c][1,4]benzodiazepin-3-yl}[(2S)-2-(1-pyrrolidinylmethyl)pyrrolidinyl]methanone]	97
Cc1cc(C(=O)N2Cc3ccc(C(=O)NCCCN(C)C)n3Cc3ccccc32)ccc1-c1ccccc1C(F)(F)F [Example 84, N-[3-(Dimethylamino)propyl]-10-{[2-methyl-2′-(trifluoromethyl)[1,1′-biphenyl]-4-yl]carbonyl}-10,11-dihydro-5H-pyrrolo[2,1-c][1 .4]benzodiazepine-3-carboxamide]	48

same assay, conditions: 100 nM, CHO cell membranes, [3H]oxytocin, values without parentheses, read-out: OT % inhibition @ 100% nM

Compound	inhibition at 0.1 µM [%]
COc1cc(C(=O)N2Cc3ccc(C(=O)N4CCC(N5CCCCC5)CC4)n3Cc3ccccc32)ccc1-c1ccccc1C [Example 116, {10-[(2-Methoxy-2′-methyl[1,1′-biphenyl]-4-yl)carbonyl]-10,11-dihydro-5H-pyrrolo[2,1-c][1,4]benzodiazepin-3-yl}[4-(1-piperidinyl)-1-piperidinyl]methanone]	84
Cc1cc(C(=O)N2Cc3ccc(C(=O)N4CCC(N5CCCCC5)CC4)n3Cc3ccccc32)ccc1-c1ccccc1C(F)(F)F [Example 122, {10-[(2-Methyl-2′-(trifluoromethyl) -[1,1′-biphenyl]-4-yl)carbonyl]-10,11-dihydro-5H -pyrrolo[2,1-c][1,4]benzodiazepin-3-yl}[4-(1-piperidinyl)-1-piperidinyl]methanone]	77
COc1cccc(-c2ccc(C(=O)N3Cc4ccc(C(=O)N5CCC(N6CCCC6)CC5)n4Cc4ccccc43)cc2OC)c1 [Example 146, {10-[(2,3′-Dimethoxy[1,1′-biphenyl]-4-yl)carbonyl]-10,11-dihydro-5H-pyrrolo[2,1-c][1,4]benzodiazepin-3-yl}[4-(1-pyrrolidinyl)-1-piperidinyl]methanone]	78
COc1cc(-c2ccccc2C)c(Cl)cc1C(=O)N1Cc2ccc(C(=O)NCCCn3ccnc3)n2Cc2ccccc21 [Example 129, 10-[(6-Chloro-3-methoxy-2′-methyl[1,1′-biphenyl]-4-yl)carbonyl]-N-[3-(1H-imidazol-1-yl)propyl]-10,11-dihydro-5H-pyrrolo[2,1-c][1,4]benzodiazepine-3-carboxamide]	52
CN(C)CCCN(C)C(=O)c1ccc2n1Cc1ccccc1N(C(=O)c1ccc(-c3cccc4ccccc34)cc1Cl)C2 [Example 109, 10-[2-Chloro-4-(1-naphthyl)benzoyl]-N-[3-(dimethylamino)propyl]-N-methyl-10,11-dihydro-5H-pyrrolo[2,1-c][1,4]benzodiazepine-3-carboxamide]	49
Cc1ccccc1-c1ccc(C(=O)N2Cc3ccc(C(=O)N4CCC(N5CCCC5)CC4)n3Cc3ccccc32)cc1C [Example 138, {10-[(2,2′-Dimethyl[1,1′-biphenyl]-4-yl)carbonyl]-10,11-dihydro-5H-pyrrolo[2,1-c][1,4]benzodiazepin-3-yl}[4-(1-pyrrolidinyl)-1-piperidinyl]methanone]	95
COc1ccccc1-c1ccc(C(=O)N2Cc3ccc(C(=O)NCCN4CCCCC4)n3Cc3ccccc32)cc1C [Example 149, 10-[(2′-Methoxy-2-methyl[1,1′-biphenyl]-4-yl)carbonyl]-N-[2-(1-piperidinyl)ethyl]-10,11-dihydro-5H-pyrrolo[2,1-c][1,4]benzodiazepine-3-carboxamide]	75
COc1cc(C(=O)N2Cc3ccc(C(=O)NCCN4CCCCC4)n3Cc3ccccc32)ccc1-c1ccccc1C [Example 154, 10-[(2-Methoxy-2′-methyl[1,1′-biphenyl]4-yl)carbonyl]-N-[2-(1-piperidinyl)ethyl]-10,11-dihydro-5H-pyrrolo[2,1-c][1,4]benzodiazepine-3-carboxamide]	54
COc1ccccc1-c1ccc(C(=O)N2Cc3ccc(C(=O)NCCCn4ccnc4)n3Cc3ccccc32)cc1 [Example 126, N-[3-(1H-Imidazol-1-yl)propyl]-10-[(2′-methoxy[1,1′-biphenyl]-4-yl)carbonyl]-10,11-dihydro-5H-pyrrolo[2,1-c][1,4]benzodiazepine-3-carboxamide]	43
Cc1cc(C(=O)N2Cc3ccc(C(=O)NCCCn4ccnc4)n3Cc3ccccc32)ccc1-c1ccccc1C(F)(F)F [Example 135, N-[3-(1H-Imidazol-1-yl)propyl]-10-{[2-methyl-2′-(trifluoromethyl)[1,1′-biphenyl]-4-yl]carbonyl}-10,11-dihydro-5H-pyrrolo[2,1-c][1,4]benzodiazepine-3-carboxamide]	24
O=C(c1ccc2n1Cc1ccccc1N(C(=O)c1ccc(-c3cccc4ccccc34)cc1Cl)C2)N1CCC(N2CCCC2)CC1 [Example 147, {10-[2-Chloro-4-(1-naphthyl)benzoyl]-10,11-dihydro-5H-pyrrolo[2,1-c][1,4]benzodiazepin-3-yl}[4-(1-pyrrolidinyl)-1-piperidinyl]methanone]	33
